Reference: patent publication US20260083750A1, “SMALL MOLECULE INHIBITORS OF KRAS PROTEINS” (MERCK SHARP & DOHME LLC, priority 2022, published 2026)

Tests used:
[1] = target: T1, KRAS-G12C (C51S/C80L/C118S) (Homo sapiens, UniProt P01116, C118S/C51S/C80L/G12C); assay: SOS-catalyzed nucleotide exchange assay (Procedure A, TR-FRET); type: biochemical; details: 60 min preincubation, SOS + GTP, read-out: KRAS G12C GNE IC50
T1 construct: N-terminal biotin-acceptor peptide […]
Method in brief: (§1)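 Preformed biotinylated RAS–Bodipy-GDP/Tb-streptavidin complex preincubated with compound 60 min at room temperature, then SOS plus GTP (3 mM final) added. Exchange times: G13D 30 min, G12C/D 60 min, G12V 90 min. Final RAS/SOS: G12C 3 nM/40 nM, G12D 1 nM/40 nM, G12V 1.25 nM/160 nM, G13D 1.25 nM/0 nM. TR-FRET 520/495 ratio, four-parameter fit.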

KRAS-G12D = target: T2, KRAS-G12D (Homo sapiens, UniProt P01116, G12D); assay: as above; type: biochemical; details: 60 min preincubation, SOS + GTP, read-out: KRAS G12D GNE IC50
T2 construct: N-terminal biotin-acceptor peptide […]
T2 sequence (P01116 with tags, fused parts or gaps isoform P01116-2 G12D): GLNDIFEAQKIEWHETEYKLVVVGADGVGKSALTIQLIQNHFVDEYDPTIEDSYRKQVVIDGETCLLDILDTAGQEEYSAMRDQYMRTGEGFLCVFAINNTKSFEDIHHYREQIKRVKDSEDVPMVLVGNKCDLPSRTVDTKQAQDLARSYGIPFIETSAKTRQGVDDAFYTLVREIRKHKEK
Method in brief: as §1

KRAS-G12V = target: T3, KRAS-G12V (Homo sapiens, UniProt P01116, G12V); assay: as above; type: biochemical; details: 60 min preincubation, SOS + GTP, read-out: KRAS G12V GNE IC50
T3 construct: N-terminal biotin-acceptor peptide […]
T3 sequence (P01116 with tags, fused parts or gaps isoform P01116-2 G12V): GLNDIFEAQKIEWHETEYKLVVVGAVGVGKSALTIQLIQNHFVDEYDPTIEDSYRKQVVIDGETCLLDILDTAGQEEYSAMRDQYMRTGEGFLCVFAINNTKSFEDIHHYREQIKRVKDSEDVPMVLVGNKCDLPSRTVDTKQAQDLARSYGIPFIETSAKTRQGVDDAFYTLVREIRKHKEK
Method in brief: as §1

KRAS-G13D = target: T4, KRAS-G13D (Homo sapiens, UniProt P01116, G13D); assay: as above; type: biochemical; details: 60 min preincubation, GTP, read-out: KRAS G13D GNE IC50
T4 construct: N-terminal biotin-acceptor peptide […]
T4 sequence (P01116 with tags, fused parts or gaps isoform P01116-2 G13D): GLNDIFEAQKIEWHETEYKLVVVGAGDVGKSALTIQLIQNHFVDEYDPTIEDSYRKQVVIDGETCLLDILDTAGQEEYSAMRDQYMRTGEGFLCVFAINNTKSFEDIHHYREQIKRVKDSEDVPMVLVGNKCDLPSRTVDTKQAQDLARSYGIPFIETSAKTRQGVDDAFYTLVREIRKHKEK
Method in brief: as §1

HRAS = HRAS (Homo sapiens, UniProt P01112); assay: as above; type: biochemical; details: 60 min preincubation, SOS + GTP, read-out: HRAS GNE IC50
Sequence of HRAS (P01112 with tags, fused parts or gaps): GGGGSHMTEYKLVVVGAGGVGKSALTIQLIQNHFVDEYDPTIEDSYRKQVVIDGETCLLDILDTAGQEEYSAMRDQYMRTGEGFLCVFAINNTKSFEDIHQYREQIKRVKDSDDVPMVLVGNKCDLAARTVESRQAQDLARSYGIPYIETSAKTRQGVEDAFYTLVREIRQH
Source text: (§2) Procedure for SOS-Catalyzed Nucleotide Exchange Assay for KRAS-G12C/D/V, G13D, HRAS, and NRAS (Procedure A)
(§3) Recombinant KRAS-G12C protein used in this assay has an additional triple mutation (C51S/C80L/C118S), whereas KRAS-G12D/V, G13D, HRAS and NRAS are in context of their WT protein sequence background. Specifically, the SOS-catalyzed nucleotide exchange assay utilizes a preformed TR-FRET complex containing a specific biotinylated RAS protein (KRAS-G12C/V/D, G13D, HRAS, NRAS; described above) with Bodipy-GDP, and Terbium-streptavidin. Compounds are preincubated with this complex for 60 minutes. Subsequently, recombinant human SOS protein and unlabeled GTP are added to initiate the exchange reaction. Small molecule inhibitors stabilize the Bodipy-GDP complex whereas the untreated protein rapidly exchanges Bodipy-GDP for unlabeled GTP resulting in reduced TR-FRET signal.
(§4) To assemble the preformed TR-FRET complexes, each biotinylated RAS protein is diluted to 2 μM in an EDTA Buffer (20 mM HEPES pH 7.5, 50 mM sodium chloride, 10 mM EDTA, and 0.01% Tween) and incubated at room temperature for one hour. This mixture is then further diluted to 90 nM in an Assay Buffer (20 mM HEPES pH 7.5, 150 mM sodium chloride, 10 mM magnesium chloride, and 0.005% Tween) containing 15 nM of Terbium-Streptavidin (Invitrogen, catalog #PV3577) and 900 nM of Bodipy-GDP (Invitrogen, catalog #G22360) and incubated at room temperature for six hours. It should be noted that this preformed TR-FRET complex for each of the RAS protein were made ahead of time, aliquoted and stored at −80° C. until the day of the experiment.
(§5) Each test compound (10 mM stock in DMSO) is diluted in DMSO to make a final-10-point, 3-fold dilution and is acoustically dispensed into a 384-well assay plate (Corning, catalog #3820) using an Echo 550 (Labcyte). Each well of the assay plate receives 3 μL of a specific 3× RAS preformed TR-FRET complex and 3 μL of Assay Buffer and is incubated at room temperature for 60 minutes (preincubation time). Each well then receives 3 μL of 3× recombinant human SOS protein and GTP (Sigma, G8877) in Assay Buffer and is incubated at room temperature for 30 minutes (G13D), 60 minutes (G12C/D, H/NRAS) or 90 minutes for G12V. The final reaction in each well of […] consists of 3 mM GTP, specific Ras and SOS proteins in the following concentrations: KRAS-G12C/SOS=3 nM/40 nM, KRAS-G12D/SOS=1 nM/40 nM, KRAS-G12V/SOS=1.25 nM/160 nM, KRAS-G13D/SOS=1.25 nM/0 nM, HRAS & NRAS=1.25 nM/40 nM.
(§6) The time-resolved fluorescence resonance energy transfer (TR-FRET) signal is measured on an Envision (PerkinElmer) plate reader: Excitation filter=340 nm; emission1=495 nm; emission2=520 nm; dichroic mirror=D400/D505; delay time=[…]. The signal of each well is determined as the ratio of the emission at 520 nm to that at 495 nm. Percent effect of each well is determined after normalization to control wells containing DMSO (no effect) or a saturating concentration of inhibitor (max effect). The apparent effect as a function of compound concentration is fit to a four-parameter logistic equation.

NRAS = NRAS (Homo sapiens, UniProt P01111); assay: as above; type: biochemical; details: 60 min preincubation, SOS + GTP, read-out: NRAS GNE IC50
Sequence of NRAS (P01111 with tags, fused parts or gaps): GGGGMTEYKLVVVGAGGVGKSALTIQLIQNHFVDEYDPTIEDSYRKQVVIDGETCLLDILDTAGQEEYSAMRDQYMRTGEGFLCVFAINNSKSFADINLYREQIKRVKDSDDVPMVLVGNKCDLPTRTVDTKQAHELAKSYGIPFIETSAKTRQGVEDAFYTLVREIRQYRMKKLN
Source text: as §2, §3, §4, §5, §6

[2] = tested on: PANC08.13 cells (homozygous KRAS-G12D activating mutation); assay: Cellular phospho-ERK assay in G12D cell line; type: cell-based; details: Homo sapiens, PANC-08-13, 2 hours compound incubation, ratio of p-ERK vs. total ERK, read-out: PANC 0813 pERK IC50
Method in brief: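 Cells (10,000-15,000/well) were seeded overnight, then treated for 2 h at 37 °C with a 10-point 1:3 titration from 30 μM final. Lysates were assayed by AlphaLISA SureFire Ultra multiplex, with the p-ERK/total-ERK ratio as read-out; IC50 came from a 4-parameter logistic fit.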

[3] = tested on: SW620 cells (homozygous KRAS-G12V activating mutation); assay: Cellular phospho-ERK assay in G12V cell line; type: cell-based; details: Homo sapiens, SW-620, 2 hours compound incubation, ratio of p-ERK vs. total ERK, read-out: SW620 pERK IC50
Method: Procedure for Cellular Phospho-ERK Assay in G12D and G12V Cell Lines
PANC08.13 cells (ATCC® CRL-2551™), containing homozygous KRAS-G12D activating mutation, were cultured in growth medium made of RPMI1640-GlutaMAX™—I (ThermoFisher Scientific 61870) containing 15% heat inactivated fetal bovine serum (ThermoFisher Scientific 10091148)). SW620 cells (ATCC® […]), containing homozygous KRAS-G12V activating mutation, were cultured in growth medium that contains RPMI 1640-GlutaMAX™—I (ThermoFisher Scientific 61870) containing 10% heat inactivated fetal bovine serum (ThermoFisher Scientific 10091148).
Cells for the assay were harvested in growth medium after TrypLE (ThermoFisher scientific 12604021) digestion and were seeded in a 384-well collagen coated cell culture plate (Corning 356702) at a density of 10,000-15,000 cells/20 uL/well, and incubated at 37° C., 5% CO2 overnight. The compound (with 10 mM stock concentration) dose-response titrations were prepared [30 μM final ERK detection assay concentration and 1:3 dilutions, 10-point dose response] and appropriate amounts (270 nL) of test compounds were dispensed in a 384-well intermediate plate using an Echo 550 liquid handler. 30 uL/well of RPMI medium 1640-GlutaMAX™—I was added to the intermediate plate and the contents of the intermediate plate (10 uL/well) were then transferred to the 384-well collagen coated cell culture plate, which was incubated at 37° C., 5% CO2 for 2 hours. After removal of medium from the collagen coated cell culture plate, cells were lysed in lysis buffer from Alpha SureFire® Ultra™ Multiplex p-ERK and total ERK assay kit (PerkinElmer MPSU-PTERK) containing Halt™ Protease and Phosphatase inhibitor cocktail (ThermoFisher Scientific 78446) at room temperature with constant shaking at 300 rpm for 30 minutes. The cell lysates were then transferred to an OptiPlate-384 plate (PerkinElmer 6005620), and the phosphorylation of ERK (p-ERK) and total ERK levels were detected by Alpha SureFire® Ultra™ Multiplex p-EEK kit and total ERK assay kit (PerkinElmer MPSU-PTERK) following the manufacturer's protocol. Assay plates were read on a EnVision Multimode Plate Reader (PerkinElmer), and the ratio of p-ERK vs. total ERK in each well was used as the final readout. Dose response curves were analyzed using a 4-parameter logistic model to calculate IC50 values using Spotfire software.

T1 sequence (P01116 with tags, fused parts or gaps isoform P01116-2 G12C/C51S/C80L/C118S): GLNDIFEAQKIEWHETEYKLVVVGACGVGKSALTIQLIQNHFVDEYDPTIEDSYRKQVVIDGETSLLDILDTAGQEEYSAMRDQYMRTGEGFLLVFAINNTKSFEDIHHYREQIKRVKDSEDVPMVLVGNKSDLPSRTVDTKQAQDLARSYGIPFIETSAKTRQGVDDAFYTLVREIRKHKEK

SMILES	IC50 [1] [µM]	IC50 (KRAS-G12D) [µM]	IC50 (KRAS-G12V) [µM]	IC50 (KRAS-G13D) [µM]	IC50 (HRAS) [µM]	IC50 (NRAS) [µM]	IC50 [2] [µM]	IC50 [3] [µM]
N#Cc1c(N)sc2c(F)ccc(-c3c(Cl)cc4c(N5CCCOCC5)nc(OC[C@@]56CCCN5C[C@H](F)C6)nc4c3F)c12 [Ex. 4, 2-amino-4-(6-chloro-8-fluoro-2-(((2R,7aS)-2-fluorotetrahydro-1H-pyrrolizin-7a(5H)-yl)methoxy)-4-(1,4-oxazepan-4-yl)quinazolin-7-yl)-7-fluorobenzo[b]thio-phene-3-carbonitrile]	0.0155	0.00762	0.00333	0.00762	> 11.1	> 11.1	0.0562	0.0486
C[C@H]1CCOCCN1c1nc(OC[C@@]23CCCN2C[C@H](F)C3)nc2c(F)c(-c3ccc(F)c4sc(N)c(C#N)c34)c(Cl)cc12 [Ex. 6, 2-amino-4-(6-chloro-8-fluoro-2-(((2R,7aS)-2-fluorotetrahydro-1H-pyrrolizin-7a(5H)-yl)methoxy)-4-((S)-5-methyl-1,4-oxazepan-4-yl)quinazolin-7-yl)-7-fluorobenzo[b]thio-phene-3-carbonitrile]	0.00916	0.00378	0.00315	0.0024	2.19	9.49	0.0339	0.0188
N#Cc1c(N)sc2c(F)ccc(-c3ncc4c(N5CCCOCC5)nc(OC[C@@]56CCCN5C[C@H](F)C6)nc4c3F)c12 [Ex. 20, 2-amino-7-fluoro-4-(8-fluoro-2-(((2R,7aS)-2-fluorotetrahydro-1H-pyrrolizin-7a(5H)-yl)methoxy)-4-(1,4-oxazepan-4-yl)pyrido[4,3-d]pyrimidin-7-yl)benzo[b]thiophene-3-carbonitrile]	0.0755	0.294	0.06	0.0931	> 11.1	> 11.1	1.42	0.511
CN(C)C[C@@]1(COc2nc(N3CCCOCC3)c3cc(Cl)c(-c4ccc(F)c5sc(N)c(C#N)c45)c(F)c3n2)CC1(F)F [Ex. 24, 2-amino-4-(6-chloro-2-(((R)-1-((dimethylamino)methyl)-2,2-difluorocyclopropyl)methoxy)-8-fluoro-4-(1,4-oxazepan-4-yl)quinazolin-7-yl)-7-fluorobenzo[b]thiophene-3-carbonitrile]	0.0304	0.0518	0.00952	0.0288	> 11.1	> 11.1	0.233	0.0931
Cc1cc(N)nc(-c2c(Cl)cc3c(N4CCCCOCC4)nc(OC[C@@]45CCCN4C[C@H](F)C5)nc3c2F)c1C(F)(F)F [Ex. 39, 6-(6-chloro-8-fluoro-2-(((2R,7aS)-2-fluorotetrahydro-1H-pyrrolizin-7a(5H)-yl)methoxy)-4-(1,4-oxazocan-4-yl)quinazolin-7-yl)-4-methyl-5-(trifluoromethyl)pyridin-2-amine]	0.0631	0.515	0.0322	0.145	> 11.1	> 11.1	1.32	0.422
Cc1cc2[nH]ncc2c(-c2c(F)cc3c(N4CCCOCC4)nc(OC[C@@]45CCCN4C[C@H](F)C5)nc3c2F)c1C(F)(F)F [Ex. 44, 4-(6,8-difluoro-2-(((2R,7aS)-2-fluorotetrahydro-1H-pyrrolizin-7a(5H)-yl)methoxy)-7-(6-methyl-5-(trifluoromethyl)-1H-indazol-4-yl)quinazolin-4-yl)-1,4-oxazepane]	0.0963	0.505	0.235	0.365	> 11.1	> 11.1	1.3	0.901
CC1COCCCN1c1nc(OC[C@@]23CCCN2C[C@H](F)C3)nc2c(F)c(-c3ccc(F)c4sc(N)c(C#N)c34)c(Cl)cc12 (stereo partly drawn) [compound 5, 2-amino-4-(6-chloro-8-fluoro-2-(((2R,7aS)-2-fluorotetrahydro-1H-pyrrolizin-7a(5H)-yl)methoxy)-4-(3-methyl-1,4-oxazepan-4-yl)quinazolin-7-yl)-7-fluorobenzo[b]thio-phene-3-carbonitrile]	0.018	0.0152	0.00615	0.0134	> 11.1	> 11.1	0.123	0.12
